Measured values: patent publication US6458391B1, “Compositions comprising oleum Melaleuca” (Safe ′N Sound Solutions, Inc., priority 1998, dated 2002)

Assay: Toxicity and tissue irritation
Conditions: 1,8-cineole content of the oil

For CC12CCC(CC1)C(C)(C)O2 [1,8-cineole], the “concentration that produces tissue irritation” value was “above 10%”.
